From patent US20230056335A1, “TOPICAL FORMULATION CONTAINING RAPAMYCIN” (NOBELPHARMA CO., LTD., priority 2020, published 2023)

How the values were obtained:
[1] = Solubility of sirolimus in each single solvent (visual observation); format: physicochemical; conditions: sirolimus:solvent 1:50 (weight ratio)
Protocol: Sirolimus was mixed into each solvent shown in Table 1 so that sirolimus:solvent was a ratio of 1:50 (weight ratio), heating and ultrasonic irradiation were performed thereon in a water bath of about 50° C., and solubility was confirmed by visual observation.

[2] = Effects of mixing amount of BHT on stability of sirolimus, HPLC quantification; format: physicochemical; conditions: BHT mixed at a concentration of 1% or higher; 40° C. and 50° C. for 2 weeks
Protocol: Quantification of sirolimus was performed by conducting an HPLC test under the following conditions and comparing the area of a sirolimus peak in a test substance and the area of a sirolimus peak in a sirolimus standard.
Detector: ultraviolet absorption photometer (detection wavelength: 278 nm)
Column: stainless steel tube with internal diameter of 4.6 mm and length of 250 mm filled with octadecylsilyl-silica gel for chromatography
Column temperature: constant temperature of about 40° C.
Mobile phase: acetonitrile/0.02 mol/L ammonium acetate buffer (pH 6.0)=13/7
Solutions were prepared by mixing various concentrations of BHT into the ethanol solution of sirolimus, and the solutions were stored at 40° C. and 50° C. for 2 weeks. Quantification of sirolimus was performed on samples after the storage by the same method as that in Reference Example 2 to calculate residual ratios.

EFT-400 kit skin model = assay: Penetration test for ointment into skin model; format: in vitro ADME
Protocol: Penetration of an ointment into a skin model was tested using the sirolimus ointment prepared in Example 4 as a test substance and an EFT-400 kit manufactured by MetTec Corporation as the skin model.
Skin model cells were transferred to a 6-well plate into which an EFT-400 assay medium was dispensed, and the cells were incubated overnight (for 16 to 18 hours) in a carbon dioxide incubator (37° C., 5% CO2, under a humidified condition).
About 50 mg of the test substance was applied onto the center of the cultured skin cells and evenly spread on the cells. These cells were incubated for 24 hours in a carbon dioxide incubator (37° C., 5% CO2, under a humidified condition). […]
Then, the sample solution was diluted 10-fold with the blank matrix, and 20 μL of the diluted sample solution was collected in a PP tube. 20 μL of acetonitrile, 20 μL of the internal standard solution, and 50 μL methanol were added to and mixed with the diluted sample solution, and the mixture was subjected to LC/MS/MS under the following conditions to quantify a sirolimus concentration in the measurement sample. The mass of sirolimus that transferred to the dermic layer was calculated from the obtained value of the sirolimus concentration and the mass of the dermic layer used in the preparation of the sample solution. […]

With `CO[C@H]1C[C@@H]2CC[C@@H](C)[C@@](O)(O2)C(=O)C(=O)N2CCCC[C@H]2C(=O)O[C@H]([C@H](C)C[C@@H]2CC[C@@H](O)[C@H](OC)C2)CC(=O)[C@H](C)/C=C(\C)[C@@H](O)[C@@H](OC)C(=O)[C@H](C)C[C@H](C)/C=C/C=C/C=C/1C` [sirolimus] the “Solubility in a single solvent” value ([1]; each solvent of Table 1) was “did not dissolve”, the Solubility ([1]; solvent 1,3 Butylene glycol, about 50° C.) was “Insoluble (cloudy liquid)” and the Solubility ([1]; solvent Diethyl sebacate, about 50° C.) was “Insoluble (cloudy liquid)”. The Solubility ([1]; solvent Diisopropyl sebacate, about 50° C.) was “Insoluble (cloudy liquid)”, the Solubility ([1]; solvent Ethylene glycol salicylate, about 50° C.) was “Insoluble (cloudy liquid)” and the Solubility ([1]; solvent Medium-chain fatty acid triglyceride, heating and ultrasonic irradiation about 50° C.) was “Insoluble (cloudy liquid)”. For the same molecule, the Solubility ([1]; solvent Polyethylene glycol (Macrogol 400), about 50° C.) was “Insoluble (cloudy liquid)”, the Solubility ([1]; solvent Propylene glycol, about 50° C.) was “Insoluble (cloudy liquid)” and the Solubility ([1]; solvent Squalane, about 50° C.) was “Insoluble (cloudy liquid)”. For the same molecule, the Solubility ([1]; solvent Triacetin, about 50° C.) was “Insoluble (cloudy liquid)”, the Stability of sirolimus [2] was “stability of sirolimus was maintained” and the “Rate of sirolimus transferred to the dermic layer” value (EFT-400 kit skin model; sirolimus ointment prepared in Example 4, about 50 mg applied, 24 hours incubation, LC/MS/MS) was 1.402 % with respect to the indicated dose. For the same molecule, the Skin penetrating properties (EFT-400 kit skin model; sirolimus ointment prepared in Example 4, EFT-400 skin model) was “sufficiently maintained”.
